For 20 compounds, Ki results are on record in article PMC7177897, “Benzylaminoethyureido-Tailed Benzenesulfonamides: Design, Synthesis, Kinetic and X-ray Investigations on Human Carbonic Anhydrases” (International Journal of Molecular Sciences, 2020).

The target of one test is T1, hCA IX (Homo sapiens, UniProt Q16790).
T1 construct: gene CA9; recombinant, made by the authors as in earlier publications
The test is described as follows: stopped-flow CO2 hydration assay. Format: biochemical. An excerpt: stopped-flow CO2 hydration assay on hCA IX

The target in another test is T2, hCA I (Homo sapiens, UniProt P00915).
T2 construct: gene CA1; crystals from hCA I purchased from Sigma-Aldrich, residues 4-260 visible, two monomers per asymmetric unit
T2 sequence (P00915 2-261): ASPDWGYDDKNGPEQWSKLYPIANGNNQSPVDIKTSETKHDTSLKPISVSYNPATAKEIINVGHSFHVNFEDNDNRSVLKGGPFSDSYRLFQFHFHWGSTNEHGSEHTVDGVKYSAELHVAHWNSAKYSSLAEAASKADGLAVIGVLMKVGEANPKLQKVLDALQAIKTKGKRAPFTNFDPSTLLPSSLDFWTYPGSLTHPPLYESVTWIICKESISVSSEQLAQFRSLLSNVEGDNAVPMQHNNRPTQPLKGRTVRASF
Put plainly: stopped-flow CO2 hydration assay. Format: biochemical. An excerpt:
stopped-flow CO2 hydration assay on hCA I

The next test has as its target T3, hCA II (Homo sapiens, UniProt P00918).
T3 construct: gene CA2; recombinant, made by the authors as in earlier publications; cytosolic isoform
The test is described as follows: stopped-flow CO2 hydration assay. The test is classed as biochemical. An excerpt: stopped-flow CO2 hydration assay on hCA II

The target of the next test is T4, hCA XII (Homo sapiens, UniProt O43570).
T4 construct: gene CA12; recombinant, made by the authors as in earlier publications
T4 sequence (O43570 25-354 limits assumed): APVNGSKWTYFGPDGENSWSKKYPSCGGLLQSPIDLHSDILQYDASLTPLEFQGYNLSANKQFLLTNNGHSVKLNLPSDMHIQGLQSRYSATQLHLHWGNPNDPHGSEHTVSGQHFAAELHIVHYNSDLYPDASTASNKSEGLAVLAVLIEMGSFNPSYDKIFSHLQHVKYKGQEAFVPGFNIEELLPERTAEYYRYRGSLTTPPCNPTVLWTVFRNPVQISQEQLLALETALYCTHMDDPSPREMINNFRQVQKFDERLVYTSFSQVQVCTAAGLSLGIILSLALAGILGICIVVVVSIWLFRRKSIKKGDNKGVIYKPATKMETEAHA
Put plainly: stopped-flow CO2 hydration assay. The test is classed as biochemical. An excerpt: stopped-flow CO2 hydration assay on hCA XII

A short description of test [1]: stopped-flow CO2 hydration assay. Format: biochemical, Homo sapiens. The conditions noted are these: read-out: hCA I.

As to `NS(=O)(=O)c1ccc(NC(=O)NCCNCc2ccc(Br)cc2O)cc1` [compound 24, 4-(3-(2-((4-bromo-2-hydroxybenzyl)amino)ethyl)ureido) benzenesulfonamide], the Ki on hCA IX is 116 nM; on hCA I, 138 nM; on hCA II, 5.3 nM; at hCA XII, 97.6 nM.
For `NS(=O)(=O)c1ccc(NC(=O)NCCNCc2ccccc2)cc1` [compound 16, 4-(3-(2-(benzylamino)ethyl)ureido) benzenesulfonamide], in that order: 1350 nM, 552 nM, 350 nM and 54.5 nM.
In the same order, the values of `COc1cc([N+](=O)[O-])ccc1CNCCNC(=O)Nc1cccc(S(N)(=O)=O)c1` [compound 33, 3-(3-(2-((2-methoxy-4-nitrobenzyl)amino)ethyl)ureido)benzenesulfonamide] are 2610 nM, more than 10000 nM, 90.2 nM and 53.1 nM.
In the same order, the values of `NS(=O)(=O)c1cccc(NC(=O)NCCNCc2ccc(O)cc2)c1` [compound 30, 3-(3-(2-((4-hydroxybenzyl)amino)ethyl)ureido) benzenesulfonamide] are 3510 nM, 6250 nM, 166 nM and 317 nM.
As for `NS(=O)(=O)c1cccc(NC(=O)NCCNCc2ccc([N+](=O)[O-])cc2)c1` [compound 31, 3-(3-(2-((4-nitrobenzyl)amino)ethyl)ureido) benzenesulfonamide], the Ki came to 2320 nM on hCA IX, 5850 nM at hCA I, 168 nM at hCA II and 60.7 nM on hCA XII.
In the same order, the values of `NS(=O)(=O)c1ccc(NC(=O)NCCNCc2ccccc2F)cc1` [compound 19, 4-(3-(2-((2-fluorobenzyl)amino)ethyl)ureido) benzenesulfonamide] are 20.3 nM, 24.6 nM, 3.9 nM and 58.3 nM.
Regarding `NS(=O)(=O)c1ccc(NC(=O)NCCNCc2ccc([N+](=O)[O-])cc2)cc1` [compound 21, 4-(3-(2-((4-nitrobenzyl)amino)ethyl)ureido) benzenesulfonamide], the Ki at hCA IX stood at 317 nM; at hCA I, 527 nM; on hCA II it was 96.1 nM; on hCA XII, 77.5 nM.
In the same order, the values of `NS(=O)(=O)c1ccc(NC(=O)NCCNCc2ccc(Cl)cc2)cc1` [compound 17, 4-(3-(2-((4-chlorobenzyl)amino)ethyl)ureido) benzenesulfonamide] are 458 nM, 582 nM, 127 nM and 32 nM.
For `COc1cc([N+](=O)[O-])ccc1CNCCNC(=O)Nc1ccc(S(N)(=O)=O)cc1` [compound 23, 4-(3-(2-((2-methoxy-4-nitrobenzyl)amino)ethyl)ureido)benzenesulfonamide], in that order: 291 nM, 788 nM, 82.4 nM and 53.6 nM.
In the same order, the values of `NS(=O)(=O)c1cccc(NC(=O)NCCNCc2ccc(F)cc2)c1` [compound 28, 3-(3-(2-((4-fluorobenzyl)amino)ethyl)ureido) benzenesulfonamide] are 4210 nM, 868 nM, 53.8 nM and 71.3 nM.
For the compound `NS(=O)(=O)c1cccc(NC(=O)NCCNCc2ccccc2)c1` [compound 26, 3-(3-(2-(benzylamino)ethyl)ureido)benzenesulfonamide], the Ki on hCA IX is more than 10000 nM; on hCA I, 928 nM; at hCA II, 76.3 nM; on hCA XII, 772 nM.
For `CN(C)c1ccc(CNCCNC(=O)Nc2cccc(S(N)(=O)=O)c2)cc1` [compound 32, 3-(3-(2-((4-(dimethylamino)benzyl)amino)ethyl)ureido) benzenesulfonamide], in that order: 1200 nM, 8910 nM, 565 nM and 78 nM.
`NS(=O)(=O)c1cccc(NC(=O)NCCNCc2ccc(-c3ccccc3)cc2)c1` [compound 35, 3-(3-(2-(([1,1’-biphenyl]-4-ylmethyl)amino)ethyl)ureido) benzenesulfonamide]: the Ki at hCA I was more than 10000 nM; at hCA II, 456 nM; in test [1], more than 10000 nM; on hCA XII, 688 nM.
As for `NS(=O)(=O)c1cccc(NC(=O)NCCNCc2ccc(Br)cc2O)c1` [compound 34, 3-(3-(2-((4-bromo-2-hydroxybenzyl)amino)ethyl)ureido) benzenesulfonamide], the Ki was determined as 1920 nM at hCA IX, 654 nM on hCA I, 2.8 nM at hCA II and 7.2 nM on hCA XII.
For `NS(=O)(=O)c1ccc(NC(=O)NCCNCc2ccc(O)cc2)cc1` [compound 20, 4-(3-(2-((4-hydroxybenzyl)amino)ethyl)ureido) benzenesulfonamide], in that order: 974 nM, 781 nM, 267 nM and 75.8 nM.
For `NS(=O)(=O)c1cccc(NC(=O)NCCNCc2ccc(Cl)cc2)c1` [compound 27, 3-(3-(2-((4-chlorobenzyl)amino)ethyl)ureido) benzenesulfonamide], in that order: 3380 nM, 702 nM, 36.9 nM and 228 nM.
Regarding `CN(C)c1ccc(CNCCNC(=O)Nc2ccc(S(N)(=O)=O)cc2)cc1` [compound 22, 4-(3-(2-((4-(dimethylamino)benzyl)amino)ethyl)ureido) benzenesulfonamide], the Ki amounted to 343 nM on hCA IX, 1510 nM at hCA I, 73.2 nM on hCA II and 264 nM on hCA XII.
In the same order, the values of `NS(=O)(=O)c1ccc(NC(=O)NCCNCc2ccc(F)cc2)cc1` [compound 18, 4-(3-(2-((4-fluorobenzyl)amino)ethyl)ureido) benzenesulfonamide] are 30.1 nM, 725 nM, 9.2 nM and 53.2 nM.
In the same order, the values of `NS(=O)(=O)c1cccc(NC(=O)NCCNCc2ccccc2F)c1` [compound 29, 3-(3-(2-((2-fluorobenzyl)amino)ethyl)ureido) benzenesulfonamide] are more than 10000 nM, 728 nM, 33.4 nM and 479 nM.
For `NS(=O)(=O)c1ccc(NC(=O)NCCNCc2ccc(-c3ccccc3)cc2)cc1` [compound 25, 4-(3-(2-(([1,1′-biphenyl]-4-ylmethyl)amino)ethyl)ureido) benzenesulfonamide], in that order: 1150 nM, 782 nM, 63.2 nM and 63.7 nM.
